Where two headings read alike, the source gives them in different places.
Key:
[1] = biological target: recombinant human NF-kappaB-inducing kinase (NIK/MAP3K14) (Homo sapiens (Human), UniProt Q99558); experiment: Inhibition of auto-phosphorylation of recombinant human NIK/MAP3K14 activity (AlphaScreen); format: biochemical; details: averaged values over all measurements on all batches
Outline: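 GST-tagged NIK at 0.2 nM autophosphorylated for 1 h at 25° C with 25 microM ATP in Tris pH 7.5, MgCl2, 1% DMSO. Phospho-IKK Ser176/180 antibody with AlphaScreen beads detected product. IC50 came from sigmoidal fits of blank-corrected % inhibition.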

[2] = system: P-IKKα levels in L363 cells; experiment: Effect of compounds on P-IKKα levels in L363 (NIK translocated multiple myeloma) cells; format: cell-based, human; details: averaged values, read-out: Inhibition of pIKKα_L-363 (IC50 (nM))
Protocol: Effect of compounds on P-IKKα levels in L363 (NIK translocated multiple myeloma) cells
All compounds tested were dissolved in DMSO and further dilutions were made in culture medium. Final DMSO concentration was 1% (v/v) in cell assays. The human L363 cells (ATCC) were cultured in RPMI 1640 medium supplemented with GlutaMax and 10% fetal calf serum (PAA). Cells were routinely maintained at densities of 0.2×10^6 cells per ml-1×10^6 cells per ml at 37° C. in a humidified 5% CO2 atmosphere. Cells were passaged twice a week splitting back to obtain the low density. Cells were seeded in 96 well plates (Nunc 167008) at 2×10^6 per ml media in a volume of 75 μl per well plus 25 μl 1 μg/ml recombinant human B-cell activating factor (BAFF/BLyS/TNFSF13B). Seeded cells were incubated at 37° C. in a humidified 5% CO2 atmosphere for 24 hr. Drugs and/or solvents were added (20 μl) to a final volume of 120 μl. Following 2 hr treatment plates were removed from the incubator and cell lysis was achieved by the addition of 30 μl 5× lysis buffer followed by shaking on a plate shaker at 4° C. for 10 min. At the end of this incubation lysed cells were centrifuged at 800×g for 20 min at 4° C. and the lysate was assessed for P-IKKα levels by sandwich immuno-assay carried out in anti-rabbit antibody coated Mesoscale plates. Within an experiment, the results for each treatment were the mean of 2 replicate wells. For initial screening purposes, compounds were tested using an 8 point dilution curve (serial 1:3 dilutions). For each experiment, controls (containing MG132 and BAFF but no test drug) and a blank incubation (containing MG132 and BAFF and 10 μM ADS125117, a test concentration known to give full inhibition) were run in parallel. The blank incubation value was subtracted from all control and sample values. To determine the IC50 a sigmoidal curve was fitted to the plot of % inhibition of control P-IKKα levels versus Log10 compound concentration.

JJN-3 cells = experiment: Antiproliferative activity on JJN-3 (NIK translocated) multiple myeloma cells (CellTiter-Glo); format: cell-based, human; details: JJN-3 (NIK translocated) cells, 96 hr, averaged values, read-out: JJN-3 Proliferation inhibition (IC50 (nM))
Outline: (§1)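 Suspension myeloma cells in RPMI 1640 with 10% FCS, plated at 15000 (JJN-3) or 20000 (KMS12-BM) cells/well, were treated 96 hr with 9-point 1:3 compound dilutions at 0.3% DMSO. CellTiter-Glo luminescence, minus a time-zero blank, was expressed as % of untreated control growth.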

KMS12-BM cells = experiment: Antiproliferative activity on KMS12-BM (NIK WT) multiple myeloma cells (CellTiter-Glo); format: cell-based, human; details: KMS12-BM (NIK WT) cells, 96 hr, averaged values, read-out: KMS-12 Proliferation inhibition (IC50 (nM))
Outline: as §1

[3] = Homo sapiens, L-363, L363 cells

recombinant human NF-kappaB-inducing kinase (NIK/MAP3K14), sequence (Q99558 whole entry): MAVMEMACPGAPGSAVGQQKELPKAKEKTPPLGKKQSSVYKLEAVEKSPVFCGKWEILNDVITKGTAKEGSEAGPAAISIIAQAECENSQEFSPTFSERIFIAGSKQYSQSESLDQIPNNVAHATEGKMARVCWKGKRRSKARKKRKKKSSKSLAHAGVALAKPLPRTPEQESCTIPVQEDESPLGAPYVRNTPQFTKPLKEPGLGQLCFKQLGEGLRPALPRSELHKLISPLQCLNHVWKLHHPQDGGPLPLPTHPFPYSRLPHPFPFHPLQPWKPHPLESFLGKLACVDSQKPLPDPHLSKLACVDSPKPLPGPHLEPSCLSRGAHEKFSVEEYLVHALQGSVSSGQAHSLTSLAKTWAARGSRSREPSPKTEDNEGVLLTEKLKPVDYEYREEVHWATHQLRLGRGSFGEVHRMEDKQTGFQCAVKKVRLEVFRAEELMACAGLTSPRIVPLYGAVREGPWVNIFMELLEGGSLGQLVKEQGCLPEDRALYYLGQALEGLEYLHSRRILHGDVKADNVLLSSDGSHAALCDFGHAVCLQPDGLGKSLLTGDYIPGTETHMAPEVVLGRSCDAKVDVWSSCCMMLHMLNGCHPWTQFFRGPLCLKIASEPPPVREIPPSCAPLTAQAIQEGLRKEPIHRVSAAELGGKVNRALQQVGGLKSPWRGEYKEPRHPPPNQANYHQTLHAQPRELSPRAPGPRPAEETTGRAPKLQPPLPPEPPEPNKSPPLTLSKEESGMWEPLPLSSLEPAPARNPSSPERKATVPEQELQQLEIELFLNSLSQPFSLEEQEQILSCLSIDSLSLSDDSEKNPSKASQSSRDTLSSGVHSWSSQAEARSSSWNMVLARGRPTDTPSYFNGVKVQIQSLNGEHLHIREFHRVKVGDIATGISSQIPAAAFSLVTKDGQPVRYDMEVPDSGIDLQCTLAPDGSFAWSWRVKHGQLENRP

IC50 [1]	IC50 [2, 3]	IC50 (JJN-3 cells; Homo sapiens, JJN-3, 96 h)	IC50 (KMS12-BM cells; Homo sapiens, KMS-12-BM, 96 h)	IC50 ([2]; L363 cells)	IC50 (JJN-3 cells)	IC50 (KMS12-BM cells)	Structure (SMILES)
5 nM	25 nM	282 nM	> 10000 nM				CC(C)CCc1c(Nc2nccc(-c3cc(C#N)c4c(c3)[C@@](C)(CO)CN4)n2)cnn1C[C@@H]1COCCO1 [Compound 121]
6.8 nM	1020 nM	479 nM	~1660 nM				Cc1nn(C2CCN(C)CC2)cc1Nc1nccc(-c2cc(C#N)c3c(c2)[C@@](C)(CO)CN3)n1 [Compound 122]
1.6 nM	20 nM	195 nM	~447 nM				Cc1c(Nc2nccc(-c3cc(C#N)c4c(c3)[C@@](C)(CO)CN4)n2)cnn1C1CCN(C)CC1 [Compound 123]
6.8 nM	219 nM	49 nM	832 nM				CN1CCC(Cn2nc(Cl)cc2Nc2nccc(-c3cc(C#N)c4c(c3)[C@@](C)(CO)CN4)n2)CC1 [Compound 124]
3.5 nM	1 nM	120 nM	> 10000 nM				CC(C)CCc1c(Nc2nccc(-c3cc(C#N)c4c(c3)[C@@](C)(CO)CN4)n2)cnn1CCN1CCOCC1 [Compound 125]
4.8 nM	170 nM	468 nM	> 10000 nM				C[C@]1(CO)CNc2c(C#N)cc(-c3ccnc(Nc4cc(Cl)nn4C[C@@H]4COCCO4)n3)cc21 [Compound 126]
2 nM	25 nM	617 nM	> 10000 nM				CC(C)CCc1c(Nc2nccc(-c3cc(C#N)c4c(c3)[C@@](C)(CO)CN4)n2)cnn1CCO [Compound 127]
3.7 nM	~41 nM	417 nM	1900 nM				C[C@]1(CO)CNc2c(C#N)cc(-c3ccnc(Nc4cc(C#N)nn4CCC4CC4)n3)cc21 [Compound 128]
3.8 nM	28 nM	251 nM	2040 nM				C[C@]1(CO)CNc2c(C#N)cc(-c3ccnc(Nc4cc(Cl)nn4C[C@@H]4CCOC4)n3)cc21 [Compound 129]
6 nM	115 nM	1000 nM	> 10000 nM				CC(C)CCc1nn(Cc2cncn2C)cc1Nc1nccc(-c2cc(C#N)c3c(c2)[C@@](C)(CO)CN3)n1 [Compound 130]
5.9 nM	166 nM	224 nM	> 10000 nM				Cc1cc(Nc2nccc(-c3cc(C#N)c4c(c3)[C@@](C)(CO)CN4)n2)n(CC2(F)CCN(C)CC2)n1 [Compound 131]
1 nM	2 nM	58 nM	~1860 nM				Cc1nn(CC(F)F)cc1Nc1nccc(-c2cc(C#N)c3c(c2)[C@@](C)(CO)CN3)n1 [Compound 132]
6.9 nM	65 nM	389 nM	6610 nM				C[C@]1(CO)CNc2c(C#N)cc(-c3ccnc(Nc4cc(Cl)nn4C[C@H]4COCCO4)n3)cc21 [Compound 133]
4.8 nM	107 nM	47 nM	2240 nM				C[C@]1(CO)CNc2c(C#N)cc(-c3ccnc(Nc4cc(Cl)nn4CC4CCN(CCF)CC4)n3)cc21 [Compound 134]
5.1 nM	229 nM	> 10000 nM	> 10000 nM				Cc1cc(Nc2nccc(-c3cc(C#N)c4c(c3)[C@@](C)(CO)CN4)n2)n(CC(=O)O)n1 [Compound 135]
7.2 nM	562 nM	724 nM	> 10000 nM				Cc1cc(Nc2nccc(-c3cc(C#N)c4c(c3)C(C)(CO)CN4)n2)n(CC2CCN(CC(=O)N(C)C)CC2)n1 (stereo not drawn) [Compound 136]
6.3 nM	36 nM	676 nM	> 10000 nM				Cc1cc(Nc2nccc(-c3cc(C#N)c4c(c3)[C@@](C)(CO)CN4)n2)n(CC2CCN(CC(F)(F)F)CC2)n1 [Compound 137]

IC50 [1]	IC50 [2, 3]	IC50 (JJN-3 cells; Homo sapiens, JJN-3, 96 h)	IC50 (KMS12-BM cells; Homo sapiens, KMS-12-BM, 96 h)	IC50 ([2]; L363 cells)	IC50 (JJN-3 cells)	IC50 (KMS12-BM cells)	Structure (SMILES)
8.3 nM	178 nM	44 nM	2570 nM				COCCN1CCC(Cn2nc(Cl)cc2Nc2nccc(-c3cc(C#N)c4c(c3)[C@@](C)(CO)CN4)n2)CC1 [Compound 138]
13 nM	182 nM	1120 nM	> 10000 nM				Cc1cc(Nc2nccc(-c3cc(C#N)c4c(c3)[C@@](C)(CO)CN4)n2)n(C[C@@H]2CN(C)CCO2)n1 [Compound 139]
0.7 nM	8 nM	50 nM	~741 nM				Cc1nc(Nc2nccc(-c3cc(C#N)c4c(c3)[C@@](C)(CO)CN4)n2)sc1C(=O)N(C)C [Compound 149]
15 nM	170 nM	2400 nM	> 10000 nM				Cn1cc(Nc2nccc(-c3cc(C#N)c4c(c3)[C@@](C)(CO)CN4)n2)c(CN2CCOCC2)n1 [Compound 150]
2 nM	13 nM	871 nM	7080 nM				CC(C)Cn1nc(CO)cc1Nc1nccc(-c2cc(C#N)c3c(c2)[C@@](C)(CO)CN3)n1 [Compound 151]
17 nM	135 nM	646 nM	7940 nM				C[C@]1(CO)CNc2c(C#N)cc(-c3ccnc(Nc4cc(Cl)nn4CC4CCN(CC(F)(F)F)CC4)n3)cc21 [Compound 152]
4.3 nM	28 nM	1440 nM	> 10000 nM				COCCn1nc(CO)cc1Nc1nccc(-c2cc(C#N)c3c(c2)[C@@](C)(CO)CN3)n1 [Compound 153]
4.9 nM	15 nM	646 nM	2290 nM				Cc1cc(Nc2nccc(-c3cc(C#N)c4c(c3)[C@@](C)(CO)CN4)n2)n(CCC2(C)COC2)n1 [Compound 154]
9.3 nM	126 nM	59 nM	> 10000 nM				COCCN1CCC(Cn2nc(C)cc2Nc2nccc(-c3cc(C#N)c4c(c3)[C@@](C)(CO)CN4)n2)CC1 [Compound 155]
3.6 nM	14 nM	1260 nM	~7240 nM				CC(C)n1nc(CO)cc1Nc1nccc(-c2cc(C#N)c3c(c2)[C@@](C)(CO)CN3)n1 [Compound 156]
10 nM				91 nM	1510 nM	> 10000 nM	C[C@@]1(CO)CNc2c(C#N)cc(-c3ccnc(Nc4cnn(CCC5CC5)c4CN4CCOCC4)n3)cc21 [Compound 159]
3.6 nM	34 nM	69 nM	~5010 nM				CN1CCC(F)(Cn2nc(Cl)cc2Nc2nccc(-c3cc(C#N)c4c(c3)[C@@](C)(CO)CN4)n2)CC1 [Compound 160]
4.3 nM	83 nM	204 nM	2240 nM				CN1CC[C@@H](Cn2nc(Cl)cc2Nc2nccc(-c3cc(C#N)c4c(c3)[C@@](C)(CO)CN4)n2)C1 [Compound 161]
12 nM	5 nM	309 nM	> 10000 nM				CC(C)CCc1c(Nc2nccc(-c3cc(C#N)c4c(c3)[C@@](C)(CO)CN4)n2)cnn1CC1CCN(CC(F)(F)F)CC1 [Compound 163]
2.6 nM	< 0.66 nM	132 nM	4680 nM				CC(C)n1nc(Nc2nccc(-c3cc(C#N)c4c(c3)[C@@](C)(CO)CN4)n2)cc1C(=O)NC1CC1 [Compound 164]
8.5 nM	48 nM	1620 nM	> 10000 nM				Cc1cc(Nc2nccc(-c3cc(C#N)c4c(c3)[C@@](C)(CO)CN4)n2)n(CCN2CCOCC2)n1 [Compound 165]

— patent publication US11136311B2, “Heteroaromatic derivatives as NIK inhibitors” (Janssen Pharmaceutica NV, priority 2016, dated 2021)
